Measured values reported in patent US20250230193A1, “CYCLIC COMPOUND HAVING SELECTIVE KRAS INHIBITORY EFFECT ON HRAS AND NRAS” (CHUGAI SEIYAKU KABUSHIKI KAISHA, priority 2022, published 2025).
*1 amine or outer side, *2 acyl side, *3 side chain or, on linkers, in order; H or OH if unused. Where a SMILES comes first, the peptide text is derived from it. Bridges are numbered along the chain shown (N, C = ends). [ ]: non-standard residue; d: D form. The star is where a group is joined. hPhe(3,5-F2-4-CF3) = N[C@@H](CCc1cc(F)c(C(F)(F)F)c(F)c1)C(=O)O; hPhe(3-Cl-4-CF3) = N[C@@H](CCc1ccc(C(F)(F)F)c(Cl)c1)C(=O)O; NPrPhe(4-CF3) = CCCN[C@@H](Cc1ccc(C(F)(F)F)cc1)C(=O)O; NEtAsp = CCN([C@@H](CC(=O)[*:3])C(=O)[*:2])[*:1]; NMeGly(cPent) = CN[C@H](C(=O)O)C1CCCC1; NMeD = CN[C@@H](CC(=O)O)C(=O)O; NMeL = CN[C@@H](CC(C)C)C(=O)O; NMeNva = CCC[C@H](NC)C(=O)O; αMeS = C[C@](N)(CO)C(=O)O; Morpholide = C1CN(*)CCO1; NMeA = CN[C@@H](C)C(=O)O; Aze = O=C(O)[C@@H]1CCN1; Ac4c = NC1(C(=O)O)CCC1; Sar = CNCC(=O)O; Allyl = C=CC*

Legend:
[1] = target: GDP-bound NRAS wild-type protein (Homo sapiens, UniProt P01111); experiment: Binding to NRAS by surface plasmon resonance (SPR), Single Cycle Kinetics; details: for NRAS/KRAS (ratio of KD value for NRAS to KD value for KRAS) / NRAS/KRAS (ratio of KD value with respect to NRAS to KD value with respect to KRAS): GDP-bound NRAS wild-type vs GDP-bound KRAS wild-type
[2] = target: GDP-bound HRAS wild-type protein (Homo sapiens, UniProt P01112); experiment: Binding to HRAS by surface plasmon resonance (SPR), Single Cycle Kinetics; details: for HRAS/KRAS (ratio of KD value for HRAS to KD value for KRAS) / HRAS/KRAS (ratio of KD value with respect to HRAS to KD value with respect to KRAS): GDP-bound HRAS wild-type vs GDP-bound KRAS wild-type
Sequence of GDP-bound HRAS wild-type protein (P01112 whole entry): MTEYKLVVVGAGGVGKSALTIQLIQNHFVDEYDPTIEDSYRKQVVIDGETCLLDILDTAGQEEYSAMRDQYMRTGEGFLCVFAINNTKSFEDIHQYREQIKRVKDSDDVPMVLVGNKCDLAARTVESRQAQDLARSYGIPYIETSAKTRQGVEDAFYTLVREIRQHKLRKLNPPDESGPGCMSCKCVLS

Sequence of GDP-bound NRAS wild-type protein (P01111 whole entry): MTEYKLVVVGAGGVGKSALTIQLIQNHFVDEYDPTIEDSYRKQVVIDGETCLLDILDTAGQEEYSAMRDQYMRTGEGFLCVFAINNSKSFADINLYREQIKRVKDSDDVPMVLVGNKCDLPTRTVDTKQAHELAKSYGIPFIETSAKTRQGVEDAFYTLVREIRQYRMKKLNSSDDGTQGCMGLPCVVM

CC[C@H](C)[C@@H]1NC(=O)[C@H](CC)N(C)C(=O)C[C@@H](C(=O)N(C)CC)N(C)C(=O)[C@H](C2CCCC2)N(C)C(=O)C2(CC(C)(C)C2)NC(=O)[C@@H]2C[C@@H](C)CN2C(=O)[C@H](CCc2ccc(C(F)(F)F)c(OC)c2)NC(=O)CN(C)C(=O)[C@H](Cc2ccc(C)cc2)N2CC/C=C\C[C@@H](C2=O)N(C)C(=O)CN(C)C1=O [PP1870]
NRAS/KRAS (ratio of KD value for NRAS to KD value for KRAS) ([1]; SPR): A (a compound having 10 or more and less than 20 is denoted as A) | HRAS/KRAS (ratio of KD value for HRAS to KD value for KRAS) ([2]; SPR): A (a compound having 10 or more and less than 20 is denoted as A)

CCC(CC)[C@H]1C(=O)N(C)[C@H](C(=O)N(C)C)CC(=O)N(C)[C@@H](COC)C(=O)N[C@@H]([C@@H](C)CC)C(=O)N(C)CC(=O)N(C)[C@H]2C/C=C\CCN(C2=O)[C@@H](Cc2ccc(C)cc2)C(=O)N(C)CC(=O)N[C@@H](CCc2ccc(C(F)(F)F)c(Cl)c2)C(=O)N2CCCC[C@H]2C(=O)NC2(CC(C)(C)C2)C(=O)N1C [PP2931]
NRAS/KRAS (ratio of KD value with respect to GDP-bound NRAS wild-type protein to KD value with respect to KRAS) ([1]; class symbols): A (a compound having 10 or more and less than 20 is denoted as A) | HRAS/KRAS (ratio of KD value with respect to GDP-bound HRAS wild-type protein to KD value with respect to KRAS) ([2]; class symbols): A (a compound having 10 or more and less than 20 is denoted as A)

CCCO[C@H](C)[C@@H]1NC(=O)[C@H](COCC)N(C)C(=O)C[C@@H](C(=O)N(C)CC)N(C)C(=O)[C@H](C2CCCC2)N(C)C(=O)C2(CC(C)(C)C2)NC(=O)[C@@H]2C[C@@H](OCC)CN2C(=O)[C@H](CCc2cc(F)c(C(F)(F)F)c(F)c2)NC(=O)CN(C)C(=O)[C@H](Cc2ccc(C)cc2)N2CC/C=C\C[C@@H](C2=O)N(C)C(=O)[C@@H]2CCCN2C1=O [PP2436]
NRAS/KRAS (ratio of KD value with respect to NRAS to KD value with respect to KRAS) ([1]; SPR): A (a compound having 10 or more and less than 20 is denoted as A) | HRAS/KRAS (ratio of KD value with respect to HRAS to KD value with respect to KRAS) ([2]; SPR): A (a compound having 10 or more and less than 20 is denoted as A)

C=CCOC[C@]1(C)NC(=O)[C@@H]2CCCN2C(=O)[C@H](CCc2cc(F)c(C(F)(F)F)c(F)c2)NC(=O)CN(C)C(=O)[C@H](Cc2ccc(C(F)(F)F)cc2)N(CCC)C(=O)CN(C)C(=O)[C@@H]2CCN2C(=O)[C@H]([C@@H](C)CC)NC(=O)[C@H](CC(C)C)N(C)C(=O)C[C@@H](C(=O)N2CCOCC2)N(C)C(=O)[C@H](C2CCCC2)N(C)C1=O [PP0780] ([NMeL]I[Aze][Sar][NPrPhe(4-CF3)][Sar][hPhe(3,5-F2-4-CF3)]P[αMeS](Allyl)[NMeGly(cPent)][NMeD]-Morpholide; lactam N-11)
NRAS/KRAS (ratio of KD value with respect to GDP-bound NRAS wild-type protein to KD value with respect to KRAS) ([1]; SPR): B (a compound having 3 or more and less than 10 is denoted as B) | HRAS/KRAS (ratio of KD value with respect to GDP-bound HRAS wild-type protein to KD value with respect to KRAS) ([2]; SPR): B (a compound having 3 or more and less than 10 is denoted as B)

CCC[C@H]1C(=O)N[C@@H]([C@@H](C)CC)C(=O)N(C)[C@@H](C)C(=O)N2CC[C@H]2C(=O)N(CCC)[C@@H](Cc2ccc(C(F)(F)F)cc2)C(=O)N(C)CC(=O)N[C@@H](CCc2ccc(C(F)(F)F)c(Cl)c2)C(=O)N2CCC[C@H]2C(=O)NC2(CCC2)C(=O)N(C)[C@@H](C2CCCC2)C(=O)N(CC)[C@H](C(=O)N2CCOCC2)CC(=O)N1C [PP1955] ([NMeNva]I[NMeA][Aze][NPrPhe(4-CF3)][Sar][hPhe(3-Cl-4-CF3)]P[Ac4c][NMeGly(cPent)][NEtAsp]-Morpholide; lactam N-11)
NRAS/KRAS (ratio of KD value for NRAS to KD value for KRAS) ([1]; SPR): C (A compound having a KD ratio of 0.1 or more and less than 3 is denoted as C) | HRAS/KRAS (ratio of KD value for HRAS to KD value for KRAS) ([2]; SPR): B (a compound having 3 or more and less than 10 is denoted as B)

CCC[C@H]1C(=O)N[C@@H](CC(C)C)C(=O)N2C[C@@H](OC)C[C@H]2C(=O)N(C)[C@H]2C/C=C\CCN(C2=O)[C@@H](Cc2ccc(C)cc2)C(=O)N(C)CC(=O)N[C@@H](CCc2ccc(C(F)(F)F)c(Cl)c2)C(=O)N2C[C@H](OCC)C[C@H]2C(=O)NC2(CCC2)C(=O)N(C)[C@@H](C2CCCC2)C(=O)N(C)[C@H](C(=O)N(C)C)CC(=O)N1C [PP2549]
NRAS/KRAS (ratio of KD value with respect to GDP-bound NRAS wild-type protein to KD value with respect to KRAS) ([1]; class symbols): A (a compound having 10 or more and less than 20 is denoted as A) | HRAS/KRAS (ratio of KD value with respect to GDP-bound HRAS wild-type protein to KD value with respect to KRAS) ([2]; class symbols): B (a compound having 3 or more and less than 10 is denoted as B)

CCC[C@@H]1C[C@H]2C(=O)NC3(CCC3)C(=O)N(C)[C@@H](C3CCCC3)C(=O)N(C)[C@H](C(=O)N(C)C)CC(=O)N(C)[C@@H](CCC)C(=O)N[C@@H]([C@@H](C)CC)C(=O)N(C)CC(=O)N(C)[C@H]3C/C=C\CCN(C3=O)[C@@H](Cc3ccc(C)cc3)C(=O)N(C)CC(=O)N[C@@H](CCc3ccc(C(F)(F)F)c(Cl)c3)C(=O)N2C1 [PP2238]
NRAS/KRAS (ratio of KD value with respect to NRAS to KD value with respect to KRAS) ([1]; SPR): A (a compound having 10 or more and less than 20 is denoted as A) | HRAS/KRAS (ratio of KD value with respect to HRAS to KD value with respect to KRAS) ([2]; SPR): A (a compound having 10 or more and less than 20 is denoted as A)
